According to US20040029865A1, “Bis-arylsulfones” (priority 2002, published 2004):

Columns and labels:
Format in all cases: physicochemical
[1] = Dynamic moisture sorption gravimetry (DMSG); settings: for moisture absorption (Δ-Wt(%) DMSG) relative to other salts: comparison with other salts; for Δ-Wt (%) DMSG: 0-90% RH: moisture sorption weight change
Procedure: Dynamic moisture sorption gravimetry (DMSG): DMSG isotherms were collected on the variable temperature controlled atmospheric microbalance, CAM. Approximately 10 mg samples were used in the balance, samples were run as received. The humidity was set at ambient conditions on the day analysis began. After the first scan with fast scan rate from ambient RH to 0% RH; the DMSG analysis followed with three more scans: 0% RH to 90% RH, 90% RH to 0% RH, 0% RH to 90% RH. The scan rate was 3% RH/step. The mass was measured every two minutes and an equilibrium window of 5 points within 0.001 mg. The RH was changed to the next value (+/−3% RH) when the mass of the sample was stable to within 1.0 μg. The Visual Basic program dmsgscn2.exe was used to control the data collection and export the information to an Excel spreadsheet.

[2] = Two-week solid-state stability at stressed conditions (high RH / high temperature), assessed by Powder-XRD; settings: for Stability at high Temp (70° C.) / Stability at high RH (88%): two weeks, Powder-XRD; for Stability at high RH (88%): 88% RH; for physical stability at stressed conditions (high temperature and/or high humidity) relative to other salts: comparison with other salts
Procedure: X-ray Diffraction (XRD) Analysis: A Scintag X-2 theta/theta scanning diffractometer (Scintag Inc., Cupertino Calif.) was employed for the XRD data acquisition for this study. […] Major instrumental parameters are set as follows: 45 KV voltage, 40 mA current, divergent slit width of 2 mm, detector scatter slit width of 0.5 mm and receiving slit width of 0.3 mm. Each XRD pattern was scanned over the spectral range of 2-40° two-theta angle with a step scan algorithm with a step size of 0.03° two-theta angle/step. The raw XRD data, exported in ASCII format, is then converted to the binary format with Galactic's Grams software (Galactic Industries Corp., Salem N.H.) for data analysis, storage and output.

[3] = Conversion of crystal form II to form I upon stirring in aqueous or hot-ethanol
From the text: See results in Table 2 below.

## CC(=O)Nc1cc(N2CCCNCC2)ccc1S(=O)(=O)c1cccc(F)c1.Cl [Example 2, N-{5-(1,4-diazepan-1-yl)-2-[(3-fluorophenyl)sulfonyl]phenyl}acetamide Hydrochloride]
[1]
  moisture absorption (Δ-Wt(%) DMSG) relative to other salts: lower moisture absorption
  Δ-Wt (%) DMSG: 0-90% RH: 0.8%
[2]
  Stability at high Temp (70° C.): Stable
  Stability at high RH (88%): Stable
  physical stability at stressed conditions (high temperature and/or high humidity) relative to other salts: better physical stability

## CC(=O)Nc1cc(N2CCCNCC2)ccc1S(=O)(=O)c1cccc(F)c1.CS(=O)(=O)O [Example 1, N-{5-(1,4-diazepan-1-yl)-2-[(3-fluorophenyl)sulfonyl]phenyl}acetamide Methanesulfonate]
[1]
  Δ-Wt (%) DMSG: 0-90% RH: Deliquesced
[2]
  Stability at high Temp (70° C.): Stable
  Stability at high RH (88%): Deliquesced

## N-{5-(1,4-diazepan-1-yl)-2-[(3-fluorophenyl)sulfonyl]phenyl}acetamide Hemi-malate [Example 10]
[1]
  Δ-Wt (%) DMSG: 0-90% RH: 1.5%
[2]
  Stability at high Temp (70° C.): Unstable**
  Stability at high RH (88%): Stable

## CC(=O)Nc1cc(N2CCCNCC2)ccc1S(=O)(=O)c1cccc(F)c1.O=C(O)/C=C/C(=O)O [Example 9, N-{5-(1,4-diazepan-1-yl)-2-[(3-fluorophenyl)sulfonyl]phenyl}acetamide Hemi-fumarate]
[1]
  Δ-Wt (%) DMSG: 0-90% RH: 3.0%
[2]
  Stability at high Temp (70° C.): Stable
  Stability at high RH (88%): Unstable**

## CC(=O)Nc1cc(N2CCCNCC2)ccc1S(=O)(=O)c1cccc(F)c1.O=C(O)CC(O)(CC(=O)O)C(=O)O [Example 6, N-{5-(1,4-diazepan-1-yl)-2-[(3-fluorophenyl)sulfonyl]phenyl}acetamide Hemi-citrate]
[1]
  Δ-Wt (%) DMSG: 0-90% RH: 2.5%
[2]
  Stability at high Temp (70° C.): Stable
  Stability at high RH (88%): Unstable***

## CC(=O)Nc1cc(N2CCCNCC2)ccc1S(=O)(=O)c1cccc(F)c1 [Example 11, N-{5-(1,4-diazepan-1-yl)-2-[(3-fluorophenyl)sulfonyl]phenyl}acetamide Hemi-tartrate]
[2]
  Stability at high Temp (70° C.): Stable
  Stability at high RH (88%): Unstable**

## N-{5-(1,4-diazepan-1-yl)-2-[(3-fluorophenyl)sulfonyl]phenyl}acetamide Hemi-succinate [Example 7]
[1]
  Δ-Wt (%) DMSG: 0-90% RH: 5.0%
[2]
  Stability at high Temp (70° C.): Unstable**
  Stability at high RH (88%): Unstable**

## CC(=O)Nc1cc(N2CCCNCC2)ccc1S(=O)(=O)c1cccc(F)c1.O=C(O)C(F)(F)F [Example 3, N-{5-(1,4-diazepan-1-yl)-2-[(3-fluorophenyl)sulfonyl]phenyl}acetamide Trifluoroacetate]
[1]
  moisture absorption (Δ-Wt(%) DMSG) relative to other salts: lower moisture absorption
  Δ-Wt (%) DMSG: 0-90% RH: 0.8%
[2]
  Stability at high Temp (70° C.): Stable
  Stability at high RH (88%): Stable
  physical stability at stressed conditions (high temperature and/or high humidity) relative to other salts: better physical stability

## CC(=O)Nc1cc(N2CCCNCC2)ccc1S(=O)(=O)c1cccc(F)c1.O=C(O)/C=C\C(=O)O [Example 4, N-{5-(1,4-diazepan-1-yl)-2-[(3-fluorophenyl)sulfonyl]phenyl}acetamide Maleate, Crystal Form I]
[1]
  Δ-Wt (%) DMSG: 0-90% RH: 0.7%
[2]
  Stability at high Temp (70° C.): Stable
  Stability at high RH (88%): Stable
[2]; listed as form I
  Stability at high Temp (70° C.): excellent physical stability
  Stability at high RH (88%): excellent physical stability
[3]
  thermodynamic preference between crystal forms: thermodynamically favored relative to form II

## CC(=O)Nc1cc(N2CCCNCC2)ccc1S(=O)(=O)c1cccc(F)c1.Cc1ccc(S(=O)(=O)O)cc1 [Example 8, N-{5-(1,4-diazepan-1-yl)-2-[(3-fluorophenyl)sulfonyl]phenyl}acetamide Tosylate]
[1]
  moisture absorption (Δ-Wt(%) DMSG) relative to other salts: lower moisture absorption
  Δ-Wt (%) DMSG: 0-90% RH: 1.9%
[2]
  Stability at high Temp (70° C.): Stable
  Stability at high RH (88%): Stable
  physical stability at stressed conditions (high temperature and/or high humidity) relative to other salts: better physical stability

## CC(=O)Nc1cc(N2CCCNCC2)ccc1S(=O)(=O)c1cccc(F)c1.O=C(O)/C=C\C(=O)O [Example 5 (Form II), N-{5-(1,4-diazepan-1-yl)-2-[(3-fluorophenyl)sulfonyl]phenyl}acetamide maleate]
[1]; maleate
  Δ-Wt (%) DMSG: 0-90% RH: 0.3%
[2]; listed as form II, maleate
  Stability at high Temp (70° C.): excellent physical stability
  Stability at high RH (88%): excellent physical stability
[2]; maleate
  Stability at high Temp (70° C.): Stable
  Stability at high RH (88%): Stable

## CC(=O)Nc1cc(N2CCCNCC2)ccc1S(=O)(=O)c1cccc(F)c1.O=C(O)/C=C\C(=O)O [maleate, N-{5-(1,4-diazepan-1-yl)-2-[(3-fluorophenyl)sulfonyl]phenyl}acetamide maleate]
[1]
  moisture absorption (Δ-Wt(%) DMSG) relative to other salts: lower moisture absorption
[2]
  physical stability at stressed conditions (high temperature and/or high humidity) relative to other salts: better physical stability
